The results in this text go back to patent publication US8945825B2, “Homogeneous activity test for determining enzymatic reactions” (Siemens Healthcare Diagnostics Products GmbH, priority 2010, dated 2015).

For one test, the target named is T1, tc-FSAP (Homo sapiens, UniProt Q14520).
T1 construct: directed against the light chain of FSAP; Two-chain FSAP (tc-FSAP) was prepared, as described by Kannemeier et al; made in house
The test can be described thus: tc-FSAP inhibition assay (LOCI signal, peptide substrate IV). The test is classed as biochemical. The note with it: for signal: measured value after 15 minutes. The protocol: The kinetics of enzyme-inhibitor interaction was investigated by measuring enzyme activity as a function of the amount of inhibitor. In the tc-FSAP inhibition assays, constant amounts of enzyme (tc-FSAP, μg/mL) were preincubated with variable inhibitor concentrations (aprotinin from bovine lung, Fluka), to enable formation of the enzyme-inhibitor complex. Another assay was carried out without preincubation. The remaining protease activity was determined after adding the peptide substrate, as described in example 1.
120 μL test buffer pH 6.3, 10 μL anti-FSAP Chemibeads (200 μg/mL in test buffer), 10 μL purified tc-FSAP (10 μg/mL) and 10 μL test buffer with 0, 4.7 and 47.2 U/mL aprotinin were mixed in DIMENSION VISTA® LOCI® reaction cuvettes. Addition of 10 μL of biotinylated peptide substrate IV in test buffer and 10 μL Sensibeads (400 μg/mL in test buffer) took place without preincubation or after 10 minutes of preincubation at 37° C. The resultant LOCI® signal was measured kinetically, over a period of 15 minutes at 37° C., in a commercially available DIMENSION VISTA® LOCI® measuring unit (Siemens Healthcare Diagnostics Products GmbH) with 200 ms illumination at 680 nm and 1000 ms measuring time at 612 nm.
Another inhibitor used was a monoclonal antibody that inhibits FSAP activity (Siemens Healthcare Diagnostics Products GmbH, MAk No. 1102/570), which is directed against the light chain of FSAP and is formed by the hybridoma cell line DSM ACC2533 (see EP-A2-1334983), similarly to the assay with aprotinin.

The target of another test is T2, FSAP in plasma (Homo sapiens, UniProt Q14520).
T2 construct: from tissue; host or cells: citrate plasma
The test can be described thus: Activation of FSAP in citrate plasma with dextran sulfate as cofactor, LOCI signal. The test is classed as biochemical. To be noted: Test buffer with DXS 20 μg/mL. The method, then:
Activation in the presence of dextran sulfate leads to a different signal height and signal dynamics versus the same sample, with the same FSAP concentration, but without activation by dextran sulfate (Table 4 and FIG. 2). The signal height produced by activation of the FSAP roughly corresponds to the signal of a purified tc-FSAP of equal concentration of 12 μg/mL with an enzyme activity of 1 PEU/mL (not shown).

T2 sequence (Q14520 24-313): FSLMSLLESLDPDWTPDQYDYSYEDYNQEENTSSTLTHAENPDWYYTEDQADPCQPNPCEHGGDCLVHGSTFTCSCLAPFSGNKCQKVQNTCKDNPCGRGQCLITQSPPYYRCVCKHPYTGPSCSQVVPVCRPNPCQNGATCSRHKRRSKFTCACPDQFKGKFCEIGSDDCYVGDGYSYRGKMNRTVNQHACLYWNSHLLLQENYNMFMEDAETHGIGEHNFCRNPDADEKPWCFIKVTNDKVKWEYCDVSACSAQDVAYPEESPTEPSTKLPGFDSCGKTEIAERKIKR
T2 sequence (Q14520 314-560): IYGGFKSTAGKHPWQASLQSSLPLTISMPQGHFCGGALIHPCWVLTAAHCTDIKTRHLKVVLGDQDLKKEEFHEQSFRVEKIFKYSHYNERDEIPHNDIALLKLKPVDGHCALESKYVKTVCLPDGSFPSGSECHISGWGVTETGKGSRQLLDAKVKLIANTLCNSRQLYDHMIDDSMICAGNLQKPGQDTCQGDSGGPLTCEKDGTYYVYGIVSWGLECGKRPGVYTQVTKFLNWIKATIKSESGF
T1 sequence (Q14520 314-560 limits assumed): as the sequence (Q14520 314-560) above
T1 sequence (Q14520 24-313 partner limits assumed): as the sequence (Q14520 24-313) above

Consider aprotinin, for which the signal at tc-FSAP (Aprotinin 4.7 U/mL, with 10 min preincubation) turned out to be 15.03 kcounts; at tc-FSAP (Aprotinin 4.7 U/mL, without preincubation) it was 71.18 kcounts; on tc-FSAP (Aprotinin 47.3 U/mL, with 10 min preincubation), 11.77 kcounts; on tc-FSAP (Aprotinin 47.3 U/mL, without preincubation), 67.8 kcounts. Besides, on tc-FSAP (mainly after preincubation with tc-FSAP), the “Effect on LOCI signal of tc-FSAP (in words)” value is on record as “strong signal-reducing effect”.

Turning to dextran sulfate sodium salt [DXS], the signal at FSAP in plasma (MW ≧ 500 kDa, peptide 10 μg/mL, incubation time 5 at +37° C.) worked out at 50.303 kcounts; on FSAP in plasma (MW ≧ 500 kDa, peptide 10 μg/mL, incubation time 10 at +37° C.), 106.500 kcounts; on FSAP in plasma (MW ≧ 500 kDa, peptide 10 μg/mL, incubation time 15 at +37° C.), 118.096 kcounts; at FSAP in plasma (peptide 0 μg/mL, incubation time 5 at +37° C.), 1.166 kcounts; on FSAP in plasma (peptide 0 μg/mL, incubation time 10 at +37° C.), 1.220 kcounts; at FSAP in plasma (peptide 0 μg/mL, incubation time 15 at +37° C.), 1.204 kcounts.
